pKi: −log10 of the molar value.
Target: T1, CCR2 (Homo sapiens, UniProt P41597)
T1 construct: Membranes were prepared from THP-1 cells; endogenous in cells; host or cells: THP-1 cells (membrane preparation)
T1 sequence (P41597 1-360 isoform P41597-2): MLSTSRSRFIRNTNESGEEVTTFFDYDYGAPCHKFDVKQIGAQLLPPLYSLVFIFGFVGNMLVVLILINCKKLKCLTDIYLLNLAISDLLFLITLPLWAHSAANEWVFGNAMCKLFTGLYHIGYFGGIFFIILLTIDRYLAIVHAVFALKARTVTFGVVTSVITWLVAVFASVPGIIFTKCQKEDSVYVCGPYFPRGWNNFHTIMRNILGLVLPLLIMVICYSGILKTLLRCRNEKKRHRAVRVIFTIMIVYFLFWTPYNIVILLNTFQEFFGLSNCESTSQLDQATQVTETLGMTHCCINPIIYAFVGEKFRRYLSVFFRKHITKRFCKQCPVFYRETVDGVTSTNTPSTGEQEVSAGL
Test: CCR2 receptor membrane binding assay ([125I]MCP-1, THP-1 cell membranes, SPA beads)
Details: for pKi: dissociation constant hKi, [125I]MCP-1 binding to THP-1 membranes; for remaining activity at 10 µM: @ 10 μM test compound, THP-1 membranes, read-out: CCR2 % ctrl @ 10 μM
In short: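 hKi was derived by iterative law-of-mass-action fitting of scintillation counts read at 8 h. Compound (1% DMSO final) competed with ca. 25000 cpm [125I]MCP-1 for THP-1 membranes bound to WGA-PVT beads. Buffer: 25 mM HEPES pH 7.2, 5 mM MgCl2, 0.5 mM CaCl2, 0.2% BSA.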

pKi	remaining activity at 10 µM [%]	SMILES
7.06		Cc1c(NCC2Cc3ccccc32)ncnc1C(=O)N1CCC(N2CCC(N(C)S(C)(=O)=O)CC2)CC1 (stereo not drawn) [Example 159nb]
7.92		Cc1c(NCC2CCC(C(C)(C)C)CC2)ncnc1C(=O)N1CCC(N2CCC(N(C)S(C)(=O)=O)CC2)CC1 (stereo not drawn) [Example 159o]
7.54		Cc1ccc(C2CCC(CNc3nc(C)nc(C(=O)N4CCC(N5CCC(N(C)S(C)(=O)=O)CC5)CC4)c3C)O2)cc1 (stereo not drawn) [Example 159oa]
6.93		Cc1c(NCC2CCc3ccccc3O2)ncnc1C(=O)N1CCC(N2CCC(N(C)S(C)(=O)=O)CC2)CC1 (stereo not drawn) [Example 159ob]
8.15		CNC(=O)C1CCN(C2CCN(C(=O)c3ncnc(NC[C@H]4CCC[C@@H](c5ccccc5)C4)c3C)CC2)CC1 [Example 159p]
7.49		Cc1c(NCC2CCC(c3cccc(C(F)(F)F)c3)O2)ncnc1C(=O)N1CCC(N2CCC(N(C)S(C)(=O)=O)CC2)CC1 (stereo not drawn) [Example 159pa]
8.00		Cc1c(NCC2CCc3ccccc3C2)ncnc1C(=O)N1CCC(N2CCC(N(C)S(C)(=O)=O)CC2)CC1 (stereo not drawn) [Example 159pb]
8.00		Cc1c(NCC2CCC(c3ccc(F)cc3)C2)ncnc1C(=O)N1CCC(N2CCC(N(C)S(C)(=O)=O)CC2)CC1 (stereo not drawn) [Example 159q]
7.72		Cc1nc(NCC2CCC(c3cccc(C(F)(F)F)c3)O2)c(C)c(C(=O)N2CCC(N3CCC(N(C)S(C)(=O)=O)CC3)CC2)n1 (stereo not drawn) [Example 159qa]
7.16		Cc1c(NCC2Cc3ccccc3O2)ncnc1C(=O)N1CCC(N2CCC(N(C)S(C)(=O)=O)CC2)CC1 (stereo not drawn) [Example 159qb]
5.59		Cc1c(NCC2CCC(c3nc4ccccc4[nH]3)CC2)ncnc1C(=O)N1CCC(N2CCC(N(C)S(C)(=O)=O)CC2)CC1 (stereo not drawn) [Example 159r]
7.66		Cc1cccc(C2CCC(CNc3ncnc(C(=O)N4CCC(N5CCC(N(C)S(C)(=O)=O)CC5)CC4)c3C)O2)c1 (stereo not drawn) [Example 159ra]
7.27		Cc1c(NCC2Cc3cc(Cl)ccc3O2)ncnc1C(=O)N1CCC(N2CCC(N(C)S(C)(=O)=O)CC2)CC1 (stereo not drawn) [Example 159rb]
5.88		Cc1c(NCC2CN(c3ccccc3)CCO2)ncnc1C(=O)N1CCC(N2CCC(N(C)S(C)(=O)=O)CC2)CC1 (stereo not drawn) [Example 159s]
7.66		Cc1cccc(C2CCC(CNc3nc(C)nc(C(=O)N4CCC(N5CCC(N(C)S(C)(=O)=O)CC5)CC4)c3C)O2)c1 (stereo not drawn) [Example 159sa]
7.68		Cc1c(NCC2COc3ccc(Cl)cc3C2)ncnc1C(=O)N1CCC(N2CCC(N(C)S(C)(=O)=O)CC2)CC1 (stereo not drawn) [Example 159sb]
5.92		Cc1c(NCC2(c3ccccc3)CCCCC2)ncnc1C(=O)N1CCC(N2CCC(N(C)S(C)(=O)=O)CC2)CC1 [Example 159t]
7.57		Cc1nc(NCC2CCC(c3ccc(C)c(F)c3)O2)c(C)c(C(=O)N2CCC(N3CCC(N(C)S(C)(=O)=O)CC3)CC2)n1 (stereo not drawn) [Example 159ta]
7.89		Cc1c(NC[C@H]2C[C@H](c3ccc(Cl)cc3)C2)ncnc1C(=O)N1CCC(N2CCC(N(C)S(C)(=O)=O)CC2)CC1 [Example 159tb]

pKi	remaining activity at 10 µM [%]	SMILES
7.54		Cc1c(NCc2ccc(-c3ccccc3)o2)ncnc1C(=O)N1CCC(N2CCC(N(C)S(C)(=O)=O)CC2)CC1 [Example 159u]
7.64		Cc1nc(NC[C@H]2CC[C@H](c3ccc(Cl)cc3)O2)c(C)c(C(=O)N2CCC(N3CCC(N(C)S(C)(=O)=O)CC3)CC2)n1 [Example 159ua]
7.74		Cc1c(NC[C@H]2C[C@H](c3ccccc3)C2)ncnc1C(=O)N1CCC(N2CCC(N(C)S(C)(=O)=O)CC2)CC1 [Example 159ub]
8.05		Cc1c(NCC2CCCN(c3ccc(C(F)(F)F)cc3)C2)ncnc1C(=O)N1CCC(N2CCC(N(C)S(C)(=O)=O)CC2)CC1 (stereo not drawn) [Example 159w]
7.48		Cc1c(NC[C@H]2CC[C@H](c3ccc(Cl)cc3)O2)ncnc1C(=O)N1CCC(N2CCC(N(C)S(C)(=O)=O)CC2)CC1 [Example 159wa]
7.80		Cc1c(NC[C@H]2C[C@@H](c3ccc(Cl)cc3)C2)ncnc1C(=O)N1CCC(N2CCC(N(C)S(C)(=O)=O)CC2)CC1 [Example 159wb]
6.83		Cc1c(NCC2CCc3ccccc32)ncnc1C(=O)N1CCC(N2CCC(N(C)S(C)(=O)=O)CC2)CC1 (stereo not drawn) [Example 159x]
7.68		COc1ccc(C2CCCC(CNc3ncnc(C(=O)N4CCC(N5CCC(N(C)S(C)(=O)=O)CC5)CC4)c3C)C2)cc1 (stereo not drawn) [Example 159xa]
8.22		Cc1ccc([C@H]2CCC[C@@H](CNc3ncnc(C(=O)N4CCC(N5CCC(N(C)S(C)(=O)=O)CC5)CC4)c3C)C2)o1 [Example 159xb]
6.77		Cc1c(NCCc2cn(C)c3ccccc23)ncnc1C(=O)N1CCC(N2CCC(N(C)S(C)(=O)=O)CC2)CC1 [Example 159y]
7.74		Cc1nc(NC[C@H]2CC[C@H](c3ccc(F)c(C)c3)O2)c(C)c(C(=O)N2CCC(N3CCC(N(C)S(C)(=O)=O)CC3)CC2)n1 [Example 159ya]
7.82		Cc1c(NC[C@H]2C[C@@H](c3ccccc3)C2)ncnc1C(=O)N1CCC(N2CCC(N(C)S(C)(=O)=O)CC2)CC1 [Example 159yb]
7.96		Cc1c(NCC2CCCC(c3ccc(F)cc3)C2)ncnc1C(=O)N1CCC(N2CCC(N(C)S(C)(=O)=O)CC2)CC1 (stereo not drawn) [Example 159z]
8.22		Cc1ccc(C2CCCC(CNc3ncnc(C(=O)N4CCC(N5CCC(N(C)S(C)(=O)=O)CC5)CC4)c3C)C2)cc1 (stereo not drawn) [Example 159za]
7.82		Cc1c(NCC2CCCC(C(C)C)C2)ncnc1C(=O)N1CCC(N2CCC(N(C)S(C)(=O)=O)CC2)CC1 (stereo not drawn) [Example 159zb]
7.37	3	CCN(C1CCN(C2CCN(C(=O)c3ncnc(NCc4ccc(Cl)c(Cl)c4)c3C)CC2)CC1)S(C)(=O)=O [Example 160]
5.70	30	Cc1c(NCc2ccc(C(C)(C)C)cc2)ncnc1C(=O)N1CCCC(N2CCC(N(C)S(C)(=O)=O)CC2)CC1 (stereo not drawn) [Example 161]
5.42	43	Cc1c(NCc2ccc(C(C)(C)C)cc2)ncnc1C(=O)N1CCCC(N2CCOCC2)CC1 (stereo not drawn) [Example 162]
5.81	32	Cc1c(NCc2ccc(C(C)(C)C)cc2)ncnc1C(=O)N1CCCC(N2CCCC2)CC1 (stereo not drawn) [Example 163]

pKi	remaining activity at 10 µM [%]	SMILES
6.45	15	Cc1c(NCCc2ccc(Cl)c(Cl)c2)ncnc1C(=O)N1CCC(N2CCC(F)(F)CC2)CC1 [Example 164]
6.65	15	Cc1c(NCCc2ccc(Cl)c(Cl)c2)ncnc1C(=O)N1CCC(N2CC[C@@H](O)C2)CC1 [Example 165]
6.64	16	Cc1c(NCCc2ccc(Cl)c(Cl)c2)ncnc1C(=O)N1CCC(N2CC[C@H](O)C2)CC1 [Example 166]
6.61	16	Cc1c(NCCc2ccc(Cl)c(Cl)c2)ncnc1C(=O)N1CCC(N2CCC(F)CC2)CC1 [Example 167]
7.29	9	Cc1c(NCCc2ccc(Cl)c(Cl)c2)ncnc1C(=O)N1CCC(N2CCC(NS(C)(=O)=O)CC2)CC1 [Example 168]
5.64	54	Cc1c(NCCc2ccc(Cl)c(Cl)c2)ncnc1C(=O)N1CCC(N2CCC[C@H](NS(C)(=O)=O)C2)CC1 [Example 169]
6.15	31	Cc1c(NCCc2ccc(Cl)c(Cl)c2)ncnc1C(=O)N1CCC(N2CCC(NC(=O)C(C)C)CC2)CC1 [Example 170]
6.45	16	CC(=O)NC1CCN(C2CCN(C(=O)c3ncnc(NCCc4ccc(Cl)c(Cl)c4)c3C)CC2)CC1 [Example 171]
6.13	28	Cc1c(NCCc2ccc(Cl)c(Cl)c2)ncnc1C(=O)N1CCC(N2CCC(C(N)=O)CC2)CC1 [Example 172]
7.05	6	CNC(=O)C1CCN(C2CCN(C(=O)c3ncnc(NCCc4ccc(Cl)c(Cl)c4)c3C)CC2)CC1 [Example 173]
5.57	53	Cc1c(NCCc2ccc(Cl)c(Cl)c2)ncnc1C(=O)N1CCC(N2CCC[C@@H](NS(C)(=O)=O)C2)CC1 [Example 174]
6.36	14	Cc1c(NCCc2ccc(Cl)c(Cl)c2)ncnc1C(=O)N1CCC(N2CCC[C@H](C(N)=O)C2)CC1 [Example 175]
6.19	31	CNC(=O)[C@H]1CCCN(C2CCN(C(=O)c3ncnc(NCCc4ccc(Cl)c(Cl)c4)c3C)CC2)C1 [Example 176]
5.90	43	Cc1c(NCCc2ccc(Cl)c(Cl)c2)ncnc1C(=O)N1CCC(N2CCC[C@H](C(=O)N(C)C)C2)CC1 [Example 177]
7.57	0	CCN(C1CCN(C2CCN(C(=O)c3ncnc(NCCc4ccc(Cl)c(Cl)c4)c3C)CC2)CC1)S(C)(=O)=O [Example 178]
5.79	42	Cc1c(NCCc2ccc(Cl)c(Cl)c2)ncnc1C(=O)N1CCC(N2CCC[C@H](C(=O)O)C2)CC1 [Example 179]
5.32	60	Cc1c(NCc2ccc(Cl)c(Cl)c2)ncnc1C(=O)N1CCC(N(C)CC2(C)COC2)CC1 [Example 180]
5.44	58	COCCN(C)C1CCN(C(=O)c2ncnc(NCc3ccc(Cl)c(Cl)c3)c2C)CC1 [Example 181]
